Assay results taken from patent publication US12065436B2, “Cardiac sarcomere inhibitors” (Cytokinetics, Inc., priority 2018, dated 2024).

Molecular target: bovine cardiac myofibrils (full-length cardiac myosin ATPase in the native sarcomere) (Bos taurus (Bovine), UniProt Q9BE39)
Test: Skinned bovine cardiac myofibril ATPase assay (PK/LDH-coupled)
Format: biochemical
Details: Ca2+ activating to 75% of maximal rate; for CDMF75 IC15: concentration giving 15% inhibition; for IC50: read-out: CDMF75 IC50
In short: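 Triton-skinned bovine left-ventricle myofibrils (1 mg/mL) in PM 12 buffer (12 mM PIPES, 2 mM MgCl2, pH 6.8) with 50 μM ATP, 0.6 mM EGTA and CaCl2 set for 50% or 75% activation. Steady-state ATPase inhibition followed by PK/LDH-coupled NADH oxidation at 340 nm.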

bovine cardiac myofibrils (full-length cardiac myosin ATPase in the native sarcomere), sequence (Q9BE39 whole entry): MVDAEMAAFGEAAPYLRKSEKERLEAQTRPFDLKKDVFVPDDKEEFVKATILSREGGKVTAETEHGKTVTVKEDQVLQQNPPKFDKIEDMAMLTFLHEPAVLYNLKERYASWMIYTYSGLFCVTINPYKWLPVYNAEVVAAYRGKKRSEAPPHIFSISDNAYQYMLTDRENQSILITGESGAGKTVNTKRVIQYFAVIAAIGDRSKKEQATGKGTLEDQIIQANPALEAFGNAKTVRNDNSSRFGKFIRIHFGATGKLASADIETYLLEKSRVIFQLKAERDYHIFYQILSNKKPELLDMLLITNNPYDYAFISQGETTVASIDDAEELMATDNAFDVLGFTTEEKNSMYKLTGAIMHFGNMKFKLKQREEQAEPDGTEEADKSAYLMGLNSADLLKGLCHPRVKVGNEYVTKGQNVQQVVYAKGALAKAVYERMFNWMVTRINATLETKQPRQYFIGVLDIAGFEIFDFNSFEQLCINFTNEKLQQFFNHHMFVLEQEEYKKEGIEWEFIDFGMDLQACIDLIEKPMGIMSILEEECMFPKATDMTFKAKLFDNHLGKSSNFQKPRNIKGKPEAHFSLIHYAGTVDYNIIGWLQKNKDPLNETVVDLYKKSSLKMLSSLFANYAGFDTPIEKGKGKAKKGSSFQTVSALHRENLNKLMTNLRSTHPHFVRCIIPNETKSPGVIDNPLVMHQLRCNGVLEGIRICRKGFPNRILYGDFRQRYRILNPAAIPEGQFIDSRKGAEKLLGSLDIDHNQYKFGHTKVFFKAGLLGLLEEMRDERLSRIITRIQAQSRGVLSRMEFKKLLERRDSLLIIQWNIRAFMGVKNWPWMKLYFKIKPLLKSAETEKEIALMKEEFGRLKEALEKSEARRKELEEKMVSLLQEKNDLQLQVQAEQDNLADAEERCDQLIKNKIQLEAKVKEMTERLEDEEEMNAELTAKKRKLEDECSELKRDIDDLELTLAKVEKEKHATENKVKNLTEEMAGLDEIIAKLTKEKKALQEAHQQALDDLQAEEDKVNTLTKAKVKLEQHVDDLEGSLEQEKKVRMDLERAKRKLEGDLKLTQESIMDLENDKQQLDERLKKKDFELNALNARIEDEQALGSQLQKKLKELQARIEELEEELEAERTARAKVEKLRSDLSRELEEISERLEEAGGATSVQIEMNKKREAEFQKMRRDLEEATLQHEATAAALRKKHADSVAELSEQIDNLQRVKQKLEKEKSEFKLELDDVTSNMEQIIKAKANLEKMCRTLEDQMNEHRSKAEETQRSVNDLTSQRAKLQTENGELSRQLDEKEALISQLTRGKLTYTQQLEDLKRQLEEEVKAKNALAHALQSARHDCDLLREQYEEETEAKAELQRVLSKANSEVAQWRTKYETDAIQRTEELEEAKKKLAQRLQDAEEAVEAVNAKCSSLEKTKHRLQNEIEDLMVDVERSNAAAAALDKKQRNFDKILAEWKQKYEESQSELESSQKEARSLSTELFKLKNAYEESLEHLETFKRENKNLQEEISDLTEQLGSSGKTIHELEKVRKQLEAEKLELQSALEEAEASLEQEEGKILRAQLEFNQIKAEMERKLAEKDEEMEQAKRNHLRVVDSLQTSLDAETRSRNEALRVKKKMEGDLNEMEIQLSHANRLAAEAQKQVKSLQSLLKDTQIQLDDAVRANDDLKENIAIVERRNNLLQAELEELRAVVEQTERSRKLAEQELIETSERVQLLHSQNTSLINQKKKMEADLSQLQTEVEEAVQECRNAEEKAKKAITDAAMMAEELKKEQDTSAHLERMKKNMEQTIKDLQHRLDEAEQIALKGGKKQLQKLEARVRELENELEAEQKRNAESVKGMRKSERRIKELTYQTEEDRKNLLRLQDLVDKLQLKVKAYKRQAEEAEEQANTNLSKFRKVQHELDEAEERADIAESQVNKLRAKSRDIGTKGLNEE
bovine cardiac myofibrils (full-length cardiac myosin ATPase in the native sarcomere), sequence (P85100 whole entry partner): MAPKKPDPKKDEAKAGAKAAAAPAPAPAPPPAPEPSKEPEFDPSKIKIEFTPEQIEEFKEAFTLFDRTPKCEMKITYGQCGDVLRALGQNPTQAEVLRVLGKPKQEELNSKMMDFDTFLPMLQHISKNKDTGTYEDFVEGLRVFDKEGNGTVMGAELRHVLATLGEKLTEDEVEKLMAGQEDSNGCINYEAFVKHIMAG
bovine cardiac myofibrils (full-length cardiac myosin ATPase in the native sarcomere), sequence (Q3SZE5 whole entry partner): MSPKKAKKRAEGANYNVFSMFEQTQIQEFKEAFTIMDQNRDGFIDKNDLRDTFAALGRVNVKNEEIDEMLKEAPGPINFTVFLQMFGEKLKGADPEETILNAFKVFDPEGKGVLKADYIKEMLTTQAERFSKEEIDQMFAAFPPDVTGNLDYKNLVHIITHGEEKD

| CDMF75 IC15 | IC50 | SMILES |
| --- | --- | --- |
| 1.6 µM | 5.7 µM | CO[C@@H](C)c1nc(-c2ccc3c(c2)CC[C@H]3NC(=O)c2oncc2C)no1 [Compound 126, N-((R)-5-(5-((S)-1-methoxyethyl)-1,2,4-oxadiazol-3-yl)-2,3-dihydro-1H-inden-1-yl)-4-methylisoxazole-5-carboxamide] |
| 2.6 µM | 12.2 µM | Cc1noc(C(=O)NC2CCc3cc(-c4noc(C)n4)ccc32)n1 (stereo not drawn) [Compound 128, 3-methyl-N-(5-(5-methyl-1,2,4-oxadiazol-3-yl)-2,3-dihydro-1H-inden-1-yl)-1,2,4-oxadiazole-5-carboxamide] |
| 4.3 µM | 17.7 µM | Cc1cc(C(=O)NC2CCc3cc(-c4nc(C(F)F)no4)ccc32)ccn1 (stereo not drawn) [Compound 132, N-(5-(3-(difluoromethyl)-1,2,4-oxadiazol-5-yl)-2,3-dihydro-1H-inden-1-yl)-2-methylisonicotinamide] |
| 39.2 µM | > 39.2 µM | Cc1cc(C(=O)N[C@@H]2CCc3cc(-c4cnc(C)o4)ccc32)ccn1 [Compound 135, (R)-2-methyl-N-(5-(2-methyloxazol-5-yl)-2,3-dihydro-1H-inden-1-yl)isonicotinamide] |
| 0.8 µM | 2.8 µM | Cc1nc(-c2ccc3c(c2)CC[C@H]3NC(=O)c2nnn(C)n2)no1 [Compound 136, (R)-2-methyl-N-(5-(5-methyl-1,2,4-oxadiazol-3-yl)-2,3-dihydro-1H-inden-1-yl)-2H-tetrazole-5-carboxamide] |
| 1.2 µM | 4.9 µM | Cc1cc(C(=O)NC2CCc3cc(-c4cc(C)on4)ccc32)ccn1 (stereo not drawn) [Compound 137, 2-methyl-N-(5-(5-methylisoxazol-3-yl)-2,3-dihydro-1H-inden-1-yl)isonicotinamide] |
| 0.8 µM | 2.9 µM | Cc1cc(C(=O)N[C@@H]2CCc3cc(-c4cc(C)on4)ccc32)ccn1 [Compound 138, (R)-2-methyl-N-(5-(5-methylisoxazol-3-yl)-2,3-dihydro-1H-inden-1-yl)isonicotinamide] |
| 7.6 µM | > 39.2 µM | Cc1cc(C(=O)NC2CCc3cc(-c4ncc(C)o4)ccc32)ccn1 (stereo not drawn) [Compound 140, 2-methyl-N-(5-(5-methyloxazol-2-yl)-2,3-dihydro-1H-inden-1-yl)isonicotinamide] |
| 0.3 µM | 1 µM | Cn1nnc(C(=O)N[C@@H]2CCc3cc(-c4noc(C5CCC5)n4)ccc32)n1 [Compound 143, (R)—N-(5-(5-cyclobutyl-1,2,4-oxadiazol-3-yl)-2,3-dihydro-1H-inden-1-yl)-2-methyl-2H-tetrazole-5-carboxamide] |
| 21.2 µM | > 39.2 µM | Cc1cc(C(=O)N[C@@H]2CCc3cc(-c4coc(C)n4)ccc32)ccn1 [Compound 146, (R)-2-methyl-N-(5-(2-methyloxazol-4-yl)-2,3-dihydro-1H-inden-1-yl)isonicotinamide] |
| 2.9 µM | 13.5 µM | Cc1cc(C(=O)NC2CCc3cc(-c4nnn(C)n4)ccc32)ccn1 (stereo not drawn) [Compound 148, 2-methyl-N-(5-(2-methyl-2H-tetrazol-5-yl)-2,3-dihydro-1H-inden-1-yl)isonicotinamide] |
| 39.2 µM | > 39.2 µM | Cc1cc(C(=O)N[C@H]2CCc3cc(-c4nnn(C)n4)ccc32)ccn1 [Compound 149, (S)-2-methyl-N-(5-(2-methyl-2H-tetrazol-5-yl)-2,3-dihydro-1H-inden-1-yl)isonicotinamide] |
| 0.5 µM | 2 µM | Cc1c(C(=O)N[C@@H]2CCc3cc(-c4noc(C5CCC5)n4)ccc32)cnn1C [Compound 151, (R)-N-(5-(5-cyclobutyl-1,2,4-oxadiazol-3-yl)-2,3-dihydro-1H-inden-1-yl)-1,5-dimethyl-1H-pyrazole-4-carboxamide] |
| 1.0 µM | 4.1 µM | Cc1cc(C(=O)NC2COc3cc(-c4noc(C)n4)ccc32)n(C)n1 (stereo not drawn) [Compound 155, 1,3-dimethyl-N-(6-(5-methyl-1,2,4-oxadiazol-3-yl)-2,3-dihydrobenzofuran-3-yl)-1H-pyrazole-5-carboxamide] |
| 1.4 µM | 5.9 µM | Cc1nc(-c2ccc3c(c2)OCC3NC(=O)c2cn(C)nc2C)no1 (stereo not drawn) [Compound 157, 1,3-dimethyl-N-(6-(5-methyl-1,2,4-oxadiazol-3-yl)-2,3-dihydrobenzofuran-3-yl)-1H-pyrazole-4-carboxamide] |
| 1.9 µM | 8.4 µM | Cc1nc(-c2ccc3c(c2)OCC3NC(=O)c2oc(C)nc2C)no1 (stereo not drawn) [Compound 159, 2,4-dimethyl-N-(6-(5-methyl-1,2,4-oxadiazol-3-yl)-2,3-dihydrobenzofuran-3-yl)oxazole-5-carboxamide] |
| 6.5 µM | 31.3 µM | Cc1nc(-c2ccc3c(c2)OC[C@@H]3NC(=O)c2oc(C)nc2C)no1 [Compound 160, (R)-2,4-dimethyl-N-(6-(5-methyl-1,2,4-oxadiazol-3-yl)-2,3-dihydrobenzofuran-3-yl)oxazole-5-carboxamide] |
| 1.1 µM | 4.4 µM | Cc1nc(-c2ccc3c(c2)OC[C@H]3NC(=O)c2oc(C)nc2C)no1 [Compound 161, (S)-2,4-dimethyl-N-(6-(5-methyl-1,2,4-oxadiazol-3-yl)-2,3-dihydrobenzofuran-3-yl)oxazole-5-carboxamide] |

The next lines start with the molecule.

| SMILES | CDMF75 IC15 | IC50 |
| --- | --- | --- |
| Cc1noc(C(=O)NC2CCc3cc(-c4noc(C(F)F)n4)ccc32)n1 (stereo not drawn) [Compound 127, N-(5-(5-(difluoromethyl)-1,2,4-oxadiazol-3-yl)-2,3-dihydro-1H-inden-1-yl)-3-methyl-1,2,4-oxadiazole-5-carboxamide] | 1.7 µM | 7.7 µM |
| Cc1nocc1C(=O)NC1CCc2cc(-c3noc(C(F)F)n3)ccc21 (stereo not drawn) [Compound 129, N-(5-(5-(difluoromethyl)-1,2,4-oxadiazol-3-yl)-2,3-dihydro-1H-inden-1-yl)-3-methylisoxazole-4-carboxamide] | 0.5 µM | 1.5 µM |
| Cc1cc(C(=O)NC2CCc3cc(-c4nc(C)no4)ccc32)ccn1 (stereo not drawn) [Compound 130, 2-methyl-N-(5-(3-methyl-1,2,4-oxadiazol-5-yl)-2,3-dihydro-1H-inden-1-yl)isonicotinamide] | 2.5 µM | 10.3 µM |
| Cc1cc(C(=O)N[C@@H]2CCc3cc(-c4nc(C)no4)ccc32)ccn1 [Compound 131, (R)-2-methyl-N-(5-(3-methyl-1,2,4-oxadiazol-5-yl)-2,3-dihydro-1H-inden-1-yl)isonicotinamide] | 1.4 µM | 5.4 µM |
| Cc1cc(C(=O)N[C@@H]2CCc3cc(-c4nc(C(F)F)no4)ccc32)ccn1 [Compound 133, (R)-N-(5-(3-(difluoromethyl)-1,2,4-oxadiazol-5-yl)-2,3-dihydro-1H-inden-1-yl)-2-methylisonicotinamide] | 1.5 µM | 5.7 µM |
| Cc1cc(C(=O)NC2CCc3cc(-c4cnc(C)o4)ccc32)ccn1 (stereo not drawn) [Compound 134, 2-methyl-N-(5-(2-methyloxazol-5-yl)-2,3-dihydro-1H-inden-1-yl)isonicotinamide] | 39.2 µM | > 39.2 µM |
| Cc1cc(C(=O)N[C@@H]2CCc3cc(-c4ncc(C)o4)ccc32)ccn1 [Compound 139, (R)-2-methyl-N-(5-(5-methyloxazol-2-yl)-2,3-dihydro-1H-inden-1-yl)isonicotinamide] | 3.6 µM | 17.3 µM |
| Cc1cc(C(=O)NC2CCc3cc(-c4coc(C)n4)ccc32)ccn1 (stereo not drawn) [Compound 145, 2-methyl-N-(5-(2-methyloxazol-4-yl)-2,3-dihydro-1H-inden-1-yl)isonicotinamide] | 39.2 µM | > 39.2 µM |
| Cc1cc(C(=O)N[C@@H]2CCc3cc(-c4nnn(C)n4)ccc32)ccn1 [Compound 147, (R)-2-methyl-N-(5-(2-methyl-2H-tetrazol-5-yl)-2,3-dihydro-1H-inden-1-yl)isonicotinamide] | 1.3 µM | 6.2 µM |
| Cc1nn(C)cc1C(=O)N[C@@H]1CCc2cc(-c3noc(C4CCC4)n3)ccc21 [Compound 150, (R)-N-(5-(5-cyclobutyl-1,2,4-oxadiazol-3-yl)-2,3-dihydro-1H-inden-1-yl)-1,3-dimethyl-1H-pyrazole-4-carboxamide] | 0.3 µM | 1.2 µM |
| Cc1nn(C)cc1C(=O)N[C@@H]1CCc2cc(-c3noc(C(C)C)n3)ccc21 [Compound 152, (R)-N-(5-(5-isopropyl-1,2,4-oxadiazol-3-yl)-2,3-dihydro-1H-inden-1-yl)-1,3-dimethyl-1H-pyrazole-4-carboxamide] | 0.6 µM | 2.2 µM |
| Cc1c(C(=O)N[C@@H]2CCc3cc(-c4noc(C5CC5)n4)ccc32)cnn1C [Compound 153, (R)-N-(5-(5-cyclopropyl-1,2,4-oxadiazol-3-yl)-2,3-dihydro-1H-inden-1-yl)-1,5-dimethyl-1H-pyrazole-4-carboxamide] | 0.5 µM | 1.9 µM |
| Cc1nn(C)cc1C(=O)N[C@@H]1CCc2cc(-c3noc(C4CC4)n3)ccc21 [Compound 154, (R)-N-(5-(5-cyclopropyl-1,2,4-oxadiazol-3-yl)-2,3-dihydro-1H-inden-1-yl)-1,3-dimethyl-1H-pyrazole-4-carboxamide] | 0.4 µM | 1.5 µM |
| Cc1cc(C(=O)N[C@@H]2COc3cc(-c4noc(C)n4)ccc32)n(C)n1 [Compound 156, (S)-1,3-dimethyl-N-(6-(5-methyl-1,2,4-oxadiazol-3-yl)-2,3-dihydrobenzofuran-3-yl)-1H-pyrazole-5-carboxamide] | 1.1 µM | 4.7 µM |
| Cc1nc(-c2ccc3c(c2)OCC3NC(=O)c2cnn(C)c2C)no1 (stereo not drawn) [Compound 162, 1,5-dimethyl-N-(6-(5-methyl-1,2,4-oxadiazol-3-yl)-2,3-dihydrobenzofuran-3-yl)-1H-pyrazole-4-carboxamide] | 1.6 µM | 6.4 µM |
